# pKd: −log10 of the molar value.
# Legend:
# [1] = molecular target: T1, soluble wild-type GnT-IVa enzyme (Mus musculus, UniProt Q812G0); assay: HPLC assay of PA-labelled product; assay type: biochemical; conditions: 10 mM MnCl2, 125 mM MES pH 6.25, 200 mM GlcNAc, 37 °C
# T1 construct: gene Mgat4a; luminal region, residues 60-526 (catalytic plus lectin domain), N-terminal His tag, secreted from COS7 cells (pcDNA-IH), Ni2+ column purified from medium
# T1 sequence (Q812G0 60-526 isoform Q812G0-2 D445A): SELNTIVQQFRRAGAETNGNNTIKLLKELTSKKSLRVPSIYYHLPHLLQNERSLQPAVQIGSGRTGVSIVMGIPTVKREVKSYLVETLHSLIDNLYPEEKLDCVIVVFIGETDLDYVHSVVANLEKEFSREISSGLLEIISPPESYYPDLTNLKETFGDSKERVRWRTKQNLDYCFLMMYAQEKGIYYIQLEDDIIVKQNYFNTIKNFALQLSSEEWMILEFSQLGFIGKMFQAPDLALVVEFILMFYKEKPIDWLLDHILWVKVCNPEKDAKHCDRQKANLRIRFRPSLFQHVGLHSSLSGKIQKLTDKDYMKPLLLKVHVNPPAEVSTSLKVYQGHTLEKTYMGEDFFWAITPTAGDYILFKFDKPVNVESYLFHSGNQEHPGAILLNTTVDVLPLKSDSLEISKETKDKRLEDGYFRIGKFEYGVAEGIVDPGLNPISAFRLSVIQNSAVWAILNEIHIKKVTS
# GnT-IVa lectin domain = molecular target: T2, GnT-IVa lectin domain (Mus musculus, UniProt Q812G0); assay: 1H-15N HSQC NMR titration (peak A); assay type: binding; conditions: 20 mM sodium phosphate pH 6.0, 298 K, 0.4 mM protein; read-out: dissociation constant
# T2 construct: gene Mgat4a; C-terminal lectin domain, residues 382-526, expressed in E. coli BL21(DE3) RIPL as GST fusion (pGEX6P-1), GST cleaved by PreScission protease; 15N-labelled for NMR
# T2 sequence (Q812G0 382-526 isoform Q812G0-2): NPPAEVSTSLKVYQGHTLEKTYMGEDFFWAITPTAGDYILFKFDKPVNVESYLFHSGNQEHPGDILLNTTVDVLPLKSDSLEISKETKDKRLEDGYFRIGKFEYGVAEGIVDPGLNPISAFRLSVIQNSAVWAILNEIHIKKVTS
pKd (GnT-IVa lectin domain),SMILES,also measured
,CC(=O)N[C@H]1[C@H](O[C@@H]([C@H](O)[C@H](CNc2ccccn2)NC(C)=O)[C@H](O)CO)O[C@H](CO)[C@@H](O[C@@H]2O[C@H](CO[C@H]3O[C@H](CO)[C@@H](O)[C@H](O)[C@@H]3O[C@@H]3O[C@H](CO)[C@@H](O)[C@H](O)[C@H]3NC(C)=O)[C@@H](O)[C@H](O[C@H]3O[C@H](CO)[C@@H](O)[C@H](O)[C@@H]3O[C@@H]3O[C@H](CO)[C@@H](O)[C@H](O)[C@H]3NC(C)=O)[C@@H]2O)[C@@H]1O [GnGnbi-PA],"Km ([1]; 20 mM UDP-GlcNAc, 32-640 μM acceptor, labelled compound): 1250 µM"
2.51,CC(=O)N[C@H]1C(O)O[C@H](CO)[C@@H](O)[C@@H]1O (stereo partly shown) [GlcNAc],
3.49,CC(=O)N[C@H]1[C@H](O[C@@H]2C(O)O[C@H](CO)[C@@H](O)[C@@H]2O)O[C@H](CO)[C@@H](O)[C@@H]1O (stereo partly shown) [GlcNAcβ1-2Man],
,CC(=O)N[C@H]1[C@@H](OP(=O)(O)OP(=O)(O)OC[C@H]2O[C@@H](n3ccc(=O)[nH]c3=O)[C@H](O)[C@@H]2O)O[C@H](CO)[C@@H](O)[C@@H]1O [UDP-GlcNAc],"Km ([1]; 10 μM GnGnbi-PA, 0.625-20 mM UDP-GlcNAc): 3950 µM"

# Reference: paper PMC9296478, “Discovery of a lectin domain that regulates enzyme activity in mouse N-acetylglucosaminyltransferase-IVa (MGAT4A)” (Communications Biology, 2022)
